Test results taken from patent publication US20240336615A1, “CYCLOPROPYL-(HETERO)ARYL-SUBSTITUTED ETHYL-SULFOXIME-PYRIDINE DERIVATIVES” (Boehringer Ingelheim Vetmedica GmbH, priority 2023, published 2024).
pEC50: −log10 of the molar value.

Columns and labels:
Laodelphax striatellus = test: Insecticidal test on Laodelphax striatellus (Example 16); format: in vivo; details: 192 h, rice seedling dip, 3rd-instar nymphs, 8 days after inoculation, read-out: activity level (corrected mortality rate)
Procedure: The compounds of formula (I), (Ia) and/or (Ib) of the present invention or salts thereof are separately dispersed in water and diluted to 500 ppm and 50 ppm. Rice plant seedlings are dipped in the dispersion for about 30 seconds. After air dried, the seedlings are put into a separate glass test tube and inoculated with ten 3rd-instar nymphs of Laodelphax striatellus and then the glass test tube is kept in a room at 25° C. 8 days after the inoculation, the numbers of the dead and alive insects are counted. The corrected mortality rate is calculated according to the following formula and the insecticidal activity is evaluated according to the following criteria.

Myzus persicae = test: Insecticidal test on Myzus persicae (Example 17); format: in vivo; details: 144 h, foliar application on Chinese cabbage, 6 days after application, read-out: control efficacy level (control rate)
Text: The compounds of formula (I), (Ia) and/or (Ib) of the present invention or salts thereof are separately dispersed in water and diluted to 500 ppm and 50 ppm. Chinese cabbage plants are planted in plastic pots (diameter: 8 cm, height: 8 cm). Aphids (Myzus persicae) are propagated on the plants and then the number of surviving aphids is counted. The dispersion is applied to the foliage of the potted plants. After the plants are air dried, these are kept in a greenhouse. 6 days after the application, the number of the alive insects is counted on the plants. The control rate is calculated according to the following formula and the control efficacy is evaluated according to the following criteria. [formula] • Ta: the number of alive insects before the foliar application in a treated plot • T: the number of alive insects after the foliar application in a treated plot • Ca: the number of alive insects before the foliar application in an untreated plot • C: the number of alive insects after the foliar application in an untreated plot • A: the control rate is 100% • B: the control rate is 90 to 99% • C: the control rate is 80 to 89% • D: the control rate is 50 to 79%

Spodoptera litura = test: Insecticidal test on Spodoptera litura (Example 14); format: in vivo; details: foliar, 192 h, 500 ppm, cabbage leaf dip, 2nd-instar larvae, 8 days after inoculation, read-out: activity level (corrected mortality rate)
Procedure: The compounds of formula (I), (Ia) and/or (Ib) of the present invention or salts thereof are separately dispersed in water and diluted to 500 ppm and 50 ppm. Cabbage leaves are dipped in the dispersion for about 30 seconds. After air dried, the leaves are placed in a plastic Petri dish with a diameter of 9 cm and inoculated with ten 2nd-instar larvae of Spodoptera litura, after which the dish is closed and then allowed to stand in a room at 25° C. 8 days after the inoculation, the numbers of the dead and alive insects are counted. The corrected mortality rate is calculated according to the following formula and the insecticidal activity is evaluated according to the following criteria.
[formula] [formula] • A: the corrected mortality rate is 100% • B: the corrected mortality rate is 90 to 99% • C: the corrected mortality rate is 80 to 89% • D: the corrected mortality rate is 50 to 79%

adult C. felis fleas [1] = test: Ingestion activity against adult Ctenocephalides felis, membrane feeding, alternative method (Examples 7 and 13)
Procedure: Selected compounds of formula (I), (Ia) and (Ib) and compound “125” of WO 2021/033141 dissolved in 100% DMSO are diluted in bovine blood with sodium heparin anti-coagulant. The resulting formulation is offered via an artificial membrane feeding system to approximately 15 adult C. felis fleas previously dispensed into 24-well plates. The plates are then incubated in a double-chambered device. Visual evaluation for mortality is performed at 48 hours post-treatment. Compound efficacy at a given dose is expressed as percentage mortality and determined by normalization to positive and negative controls. A dose response series is implemented to determine EC50 values.
Compounds of formulae (I), (Ia) and/or (Ib) dissolved in 100% DMSO are diluted in bovine blood with sodium heparin anti-coagulant. The resulting formulation is offered via an artificial membrane feeding system to approximately 15 adult C. felis fleas previously dispensed into 24-well plates. The plates are then incubated in a double-chambered device. Visual evaluation for mortality is performed at 48 hours post-treatment. Compound efficacy at a given dose is expressed as percentage mortality and determined by normalization to positive and negative controls. A dose response series is implemented to determine EC50 values.

adult C. felis fleas [2] = test: Ingestion activity against adult Ctenocephalides felis, membrane feeding, motility (Example 6); details: 48 h, bovine blood via artificial membrane, 48h post treatment, read-out: EC50 (ingestion activity, % motility reduction)
Procedure: Compounds of formulae (I), (Ia) and/or (Ib) dissolved in 100% DMSO are added to bovine blood and offered via an artificial membrane feeding system to adult C. felis fleas. The motility of fleas is then visually inspected 48h post treatment. Efficacy is expressed in % motility reduction compared to controls containing blood treated with DMSO only. A dose response series is implemented to determine EC50 values.

Plutella xylostella = test: Insecticidal test on Plutella xylostella (Example 15); format: in vivo; details: 144 h, Chinese cabbage seedling dip, 6 days after dip treatment, read-out: activity level (corrected mortality rate)
Procedure: The compounds of formula (I), (Ia) and/or (Ib) of the present invention or salts thereof are separately dispersed in water and diluted to 500 ppm and 50 ppm. Ten adults of Plutella xylostella are released onto Chinese cabbage seedlings and allowed to lay eggs thereon. 2 days after the release of the adults, the seedling is dipped in the dispersion for about 30 seconds. After air dried, the seedling is kept in a room at 25° C. 6 days after the dip treatment, the numbers of the dead and alive insects are counted. The corrected mortality rate is calculated according to the following formula and the insecticidal activity is evaluated according to the following criteria.

[3] = tested on: adult Ctenocephalides felis fleas; test: Contact activity against adult Ctenocephalides felis (Example 4); details: adult C. felis, coated pipe cleaner in vial, 72 hours post-treatment, read-out: EC50 (contact activity, percentage mortality)
Procedure: Compounds of formulae (I), (Ia) and/or (Ib) dissolved in 100% DMSO are diluted in acetone to a desired concentration. The resulting formulation is used to coat the fibers of a 0.5-inch-long piece of pipe cleaner placed in a glass scintillation vial. The vial is capped with a rubber gasket and filter paper insert. After the acetone has evaporated, ten adult Ctenocephalides felis fleas are added to each vial. The vials are then incubated at 22° C., 80% relative humidity, and 12 hours of light/12 hours of dark until a visual evaluation for mortality is performed at 72 hours post-treatment. Compound efficacy at a given dose is expressed as percentage mortality and adjusted to remove background mortality observed in control vials containing DMSO only. A dose response series of treated vials is implemented to determine EC50 values.

[4] = Ctenocephalides felis, adult C. felis, bovine blood with sodium heparin, membrane feeding, 48 hours post-treatment, read-out: EC50 (ingestion activity, percentage mortality, alternative method)
[5] = Ctenocephalides felis, alternative method according to Example 7, mortality at 48 hours post-treatment, read-out: C. felis membrane feeding (ingestion/blood feeding) activity EC50
[6] = alternative method according to Example 7, mortality at 48 hours post-treatment, read-out: C. felis membrane feeding (ingestion/blood feeding) activity EC50

Structure (SMILES) | mortality at 500 ppm (Laodelphax striatellus) | pest or weed control at 500 ppm (Myzus persicae) | pEC50 (adult C. felis fleas [1]; [4]) | pEC50 (adult C. felis fleas [2]) | mortality at 500 ppm (Plutella xylostella) | pEC50 (adult C. felis fleas [1]; [5]) | also measured
CCS(=N)(=O)c1cc(-c2ccc(C3(C#N)CC3)cc2)cnc1-c1nc2cc(C(C)(F)F)cnc2n1C (centres unmarked) [Compound 2] | 100% | 100% | 5.00 to 6.00 | 5.00 to 6.00 | 100% |  | mortality at 500 ppm (Spodoptera litura): 100%
CCS(=N)(=O)c1cc(-c2noc(C3(C(F)(F)F)CC3)n2)cnc1-c1nc2cc(C(F)(F)C3CC3)nnc2n1C (centres unmarked) [Compound 4] |  |  | > 6.00 | > 6.00 |  | 6.32 | pEC50 [3]: 4.00 to 5.00
CC[S@](=N)(=O)c1cc(-c2noc(C3CC3)n2)cnc1-c1nc2cc(C(F)(F)C(F)(F)F)cnc2n1C [Compound 7a, (S)-[5-(5-cyclopropyl-1,2,4-oxadiazol-3-yl)-2-[3-methyl-6-(1,1,2,2,2-pentafluoroethyl)-3H-imidazo[4,5-b]pyridin-2-yl]pyridin-3-yl](ethyl)imino-lambda6-sulfanone] |  |  |  |  |  |  | pEC50 (adult C. felis fleas [1]; [6]): 6.41
CC[S@@](=N)(=O)c1cc(-c2noc(C3CC3)n2)cnc1-c1nc2cc(C(F)(F)C(F)(F)F)cnc2n1C [Compound 7b, (R)-[5-(5-cyclopropyl-1,2,4-oxadiazol-3-yl)-2-[3-methyl-6-(1,1,2,2,2-pentafluoroethyl)-3H-imidazo[4,5-b]pyridin-2-yl]pyridin-3-yl](ethyl)imino-lambda6-sulfanone] |  |  |  |  |  |  | pEC50 (adult C. felis fleas [1]; [6]): 5.87
CC[SH](=N)(O)c1cc(-c2noc(C3CC3)n2)cnc1-c1nc2cc(C(F)(F)C(F)(F)F)nnc2n1C [Compound 8a] |  |  |  |  |  |  | pEC50 (adult C. felis fleas [1]; [6]): 6.32
CCS(=N)(=O)c1cc(-c2noc(C3CC3)n2)cnc1-c1nc2cc(C(C)(F)F)cnc2n1C (centres unmarked) [Compound 10] | 100% | 100% |  |  | 100% |  | 
CCS(=N)(=O)c1cc(-c2noc(C3CC3)n2)cnc1-c1nc2cc(C(F)(F)C3CC3)cnc2n1C (centres unmarked) [Compound 12] |  | 100% |  |  |  |  | mortality at 50 ppm (Plutella xylostella): 100%
CCS(=N)(=O)c1cc(-c2noc(C3CC3)n2)cnc1-c1nc2cc(C(C)(F)F)nnc2n1C (centres unmarked) [Compound 13] |  |  | 5.00 to 6.00 | > 6.00 |  |  | mortality at 50 ppm (Laodelphax striatellus): 100%; pest or weed control at 50 ppm (Myzus persicae): 100%; mortality at 50 ppm (Plutella xylostella): 100%
CCS(=N)(=O)c1cc(-c2noc(C3CC3)n2)cnc1-c1nc2cc(C(F)(F)C3CC3)nnc2n1C (centres unmarked) [Compound 15] | 100% | 100% | 5.00 to 6.00 |  | 100% |  | 
CCS(=N)(=O)c1cc(-c2ccc(C3(C#N)CC3)cc2)cnc1-c1nc2cc(C(C)(F)F)cn(CC(F)F)c-2c1F (centres unmarked) [Compound 16] |  |  | 5.00 to 6.00 |  |  |  | 
CCS(=N)(=O)c1cc(-c2ccc(C3(C#N)CC3)cc2)cnc1-c1nc2cc(C(F)(F)F)cn(CC(F)F)c-2c1F (centres unmarked) [Compound 17] |  |  | > 6.00 |  |  | 6.48 | 
CCS(=N)(=O)c1cc(-c2noc(C3(F)CC3)n2)cnc1-c1nc2cc(C(C)(F)F)cnc2n1C (centres unmarked) [Compound 18] |  |  |  |  |  |  | mortality at 50 ppm (Laodelphax striatellus): 100%; pest or weed control at 50 ppm (Myzus persicae): 100%; mortality at 50 ppm (Plutella xylostella): 100%
CCS(=N)(=O)c1cc(-c2cn(C3CC3)cn2)cnc1-c1nc2cc(C(F)(F)C(F)(F)F)cnc2n1C (centres unmarked) [Compound 21] | 100% | 100% | > 6.00 | > 6.00 | 100% | 6.39 | pEC50 [3]: 4.00 to 5.00; mortality at 500 ppm (Spodoptera litura): 100%
CCS(=N)(=O)c1cc(-n2cc(C3(C#N)CC3)cn2)cnc1-c1nc2cc(C(F)(F)C(F)(F)F)cnc2n1C (centres unmarked) [Compound 26] | 100% | 100% | > 6.00 | > 6.00 | 100% | 6.06 | mortality at 500 ppm (Spodoptera litura): 100%
CCS(=N)(=O)c1cc(-n2cc(C3CC3)nn2)cnc1-c1nc2cc(C(F)(F)C(F)(F)F)cnc2n1C (centres unmarked) [Compound 28] | 100% | 100% | 5.00 to 6.00 | 5.00 to 6.00 | 100% |  | mortality at 500 ppm (Spodoptera litura): 100%
CCS(=N)(=O)c1cc(-c2noc(C3(F)CC3)n2)cnc1-c1nc2cc(C(C)(F)F)nnc2n1C (centres unmarked) [Compound 29] | 100% | 100% | 5.00 to 6.00 |  | 100% |  | pEC50 [3]: 4.00 to 5.00
CCS(=N)(=O)c1cc(-c2noc(C3(F)CC3)n2)cnc1-c1nc2cc(C(F)(F)C(F)(F)F)nnc2n1C (centres unmarked) [Compound 32] |  |  | > 6.00 | > 6.00 |  | 6.38 | pEC50 [3]: > 5.00; mortality at 50 ppm (Laodelphax striatellus): 100%; pest or weed control at 50 ppm (Myzus persicae): 100%; mortality at 50 ppm (Plutella xylostella): 100%
CCS(=N)(=O)c1cc(-n2cc(C3(C#N)CC3)cn2)cnc1-c1nc2cc(C(F)(F)C(F)(F)F)nnc2n1C (centres unmarked) [Compound 33] |  |  | > 6.00 | 5.00 to 6.00 |  | 6.36 | mortality at 50 ppm (Laodelphax striatellus): 100%; pest or weed control at 50 ppm (Myzus persicae): 100%; mortality at 50 ppm (Plutella xylostella): 100%
CCS(=N)(=O)c1cc(-n2cc(C3CC3)cn2)cnc1-c1nc2cc(C(F)(F)C(F)(F)F)nnc2n1C (centres unmarked) [Compound 34] | 100% | 100% |  |  | 100% |  | pEC50 [3]: 4.00 to 5.00; mortality at 500 ppm (Spodoptera litura): 100%
CCS(=N)(=O)c1cc(-c2ccc(C3(C#N)CC3)cc2)cnc1-n1cc2cnc(C(F)(F)F)cc2n1 (centres unmarked) [Compound 35] |  |  | > 6.00 | 5.00 to 6.00 |  | 6.11 | 
